Legend:
Assay in all cases: Test B pre-/postemergence plant response
Format in all cases: in vivo
[1] = system: morningglory (Ipomoea coccinea)
Outline: (§1)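 Seeds were sown and sprayed preemergence, while plants at 2 to 18 cm (1- to 4-leaf stage) got postemergence sprays. Compounds were formulated in a non-phytotoxic solvent mixture with surfactant. After 13 to 15 days in a greenhouse, injury was rated visually against untreated controls, 0 (no effect) to 100 (complete control).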

[2] = system: common ragweed (Ambrosia elation)
Outline: as §1

[3] = system: common (oilseed) sunflower (Helianthus annuus); conditions: Preemergence
Outline: as §1

kochia (Kochia scoparia) = system: kochia (Kochia scoparia)
Outline: as §1

[4] = system: surinam grass (Brachiaria decumbens)
Outline: as §1

[5] = system: large crabgrass (Digitaria sanguinalis)
Outline: as §1

[6] = system: eastern black (E.B.) nightshade (Solanum ptycanthum); conditions: Preemergence
Outline: as §1

soybean (Glycine max) = system: soybean (Glycine max)
Outline: as §1

[7] = system: lambsquarters (Chenopodium album)
Outline: as §1

[8] = system: wheat (Triticum aestivum)
Outline: as §1

[9] = system: blackgrass (Alopecurus myosuroides); conditions: for Blackgrass plant response rating: 8 g ai/ha
Outline: as §1

[10] = system: green foxtail (Setaria viridis)
Outline: as §1

wild oat (Avena fatua) = system: wild oat (Avena fatua)
Outline: as §1

[11] = system: goosegrass (Eleusine indica)
Outline: as §1

[12] = 8 g ai/ha, postemergence, 0-100 scale
[13] = Postemergence, 16 g ai/ha, scale 0 to 100
[14] = Postemergence, 31 g ai/ha, scale 0 to 100
[15] = Postemergence, 62 g ai/ha, scale 0 to 100, 0 no effect, 100 complete control
[16] = Preemergence, 31 g ai/ha, scale 0 to 100 (0 no effect, 100 complete control)
[17] = Preemergence, 62 g ai/ha, scale 0 to 100
[18] = Preemergence, 8 g ai/ha, scale 0 to 100
[19] = Preemergence, 16 g ai/ha, scale 0 to 100
[20] = 31 g ai/ha, scale 0 to 100 (0 no effect, 100 complete control)
[21] = Preemergence, 62 g ai/ha, 0 to 100 scale, 0 no effect, 100 complete control
[22] = Preemergence, 31 g ai/ha, 0 to 100 scale, 0 no effect, 100 complete control

Cc1cc(-c2ccc(Cl)cc2)nn1-c1c(OC(=O)c2cccs2)cnn(C)c1=O [Compound 52]
Morningglory plant response rating [1, 12]: 0
Plant response rating, Morningglory [1, 13]: 0
Plant response rating, Morningglory [1, 14]: 0
Plant response rating, Morningglory [1, 15]: 0
Plant response rating, Morningglory [1, 16]: 90
Plant response rating, Morningglory [1, 17]: 100
Morningglory plant response rating [1, 18]: 0
Morningglory plant response rating [1, 19]: 0
Ragweed plant response rating [2, 12]: 0
Plant response rating, Ragweed [2, 13]: 0
Plant response rating, Ragweed [2, 14]: 0
Plant response rating, Ragweed [2, 15]: 0
Plant response rating, Ragweed [2, 16]: 0
Plant response rating, Ragweed [2, 17]: 0
Ragweed plant response rating [2, 18]: 0
Ragweed plant response rating [2, 19]: 0
Plant response rating, Sunflower [3, 20]: 0
Plant response rating, Sunflower ([3]; 62 g ai/ha, scale 0 to 100): 0
Sunflower plant response rating ([3]; 8 g ai/ha, scale 0 to 100): 0
Sunflower plant response rating ([3]; 16 g ai/ha, scale 0 to 100): 0
Kochia plant response rating (kochia (Kochia scoparia); [12]): 0
Plant response rating, Kochia (kochia (Kochia scoparia); [13]): 0
Plant response rating, Kochia (kochia (Kochia scoparia); [14]): 0
Plant response rating, Kochia (kochia (Kochia scoparia); [15]): 0
Plant response rating, Kochia (kochia (Kochia scoparia); [17]): 85
Kochia plant response rating (kochia (Kochia scoparia); [18]): 0
Kochia plant response rating (kochia (Kochia scoparia); [19]): 0
Surinam Grass plant response rating [4, 12]: 70
Plant response rating, Surinam Grass [4, 13]: 85
Plant response rating, Surinam Grass [4, 14]: 100
Plant response rating, Surinam Grass [4, 15]: 100
Plant response rating, Surinam Grass [4, 16]: 25
Plant response rating, Surinam Grass [4, 21]: 100
Surinam Grass plant response rating [4, 18]: 0
Surinam Grass plant response rating [4, 19]: 0
Crabgrass, Large plant response rating [5, 12]: 65
Plant response rating, Crabgrass, Large [5, 13]: 85
Plant response rating, Crabgrass, Large [5, 14]: 100
Plant response rating, Crabgrass, Large [5, 15]: 100
Plant response rating, Crabgrass, Large [5, 22]: 0
Plant response rating, Crabgrass, Large [5, 17]: 0
Crabgrass, Large plant response rating [5, 18]: 0
Crabgrass, Large plant response rating [5, 19]: 0
Plant response rating, Nightshade, E. B. [6, 20]: 0
Plant response rating, Nightshade, E. B. ([6]; 62 g ai/ha, scale 0 to 100): 0
Nightshade, E. B. plant response rating ([6]; 8 g ai/ha, scale 0 to 100): 0
Nightshade, E. B. plant response rating ([6]; 16 g ai/ha, scale 0 to 100): 0
Soybean plant response rating (soybean (Glycine max); [12]): 0
Plant response rating, Soybean (soybean (Glycine max); [13]): 0
Plant response rating, Soybean (soybean (Glycine max); [14]): 0
Plant response rating, Soybean (soybean (Glycine max); [15]): 0
Plant response rating, Soybean (soybean (Glycine max); [17]): 0
Soybean plant response rating (soybean (Glycine max); [18]): 0
Soybean plant response rating (soybean (Glycine max); [19]): 0
Lambsquarters plant response rating [7, 12]: 0
Plant response rating, Lambsquarters [7, 13]: 0
Plant response rating, Lambsquarters [7, 14]: 0
Plant response rating, Lambsquarters [7, 15]: 0
Plant response rating, Lambsquarters [7, 22]: 0
Plant response rating, Lambsquarters [7, 17]: 0
Lambsquarters plant response rating [7, 18]: 0
Lambsquarters plant response rating [7, 19]: 0
Wheat plant response rating [8, 12]: 0
Plant response rating, Wheat [8, 13]: 50
Plant response rating, Wheat [8, 14]: 70
Plant response rating, Wheat [8, 15]: 85
Plant response rating, Wheat [8, 16]: 20
Plant response rating, Wheat [8, 21]: 50
Wheat plant response rating [8, 18]: 0
Wheat plant response rating [8, 19]: 0
Blackgrass plant response rating ([9]; postemergence, 0-100 scale): 50
Plant response rating, Blackgrass [9, 13]: 70
Plant response rating, Blackgrass [9, 14]: 95
Plant response rating, Blackgrass [9, 15]: 95
Plant response rating, Blackgrass ([9]; Preemergence, 16 g ai/ha, scale 0 to 100 (0 no effect, 100 complete control)): 95
Plant response rating, Blackgrass [9, 22]: 100
Plant response rating, Blackgrass [9, 17]: 100
Blackgrass plant response rating ([9]; Preemergence, scale 0 to 100): 0
Foxtail, Green plant response rating [10, 12]: 80
Plant response rating, Foxtail, Green [10, 13]: 95
Plant response rating, Foxtail, Green [10, 14]: 98
Plant response rating, Foxtail, Green [10, 15]: 100
Plant response rating, Foxtail, Green [10, 22]: 100
Plant response rating, Foxtail, Green [10, 17]: 100
Foxtail, Green plant response rating [10, 18]: 90
Foxtail, Green plant response rating [10, 19]: 90
Oat, Wild plant response rating (wild oat (Avena fatua); [12]): 50
Plant response rating, Oat, Wild (wild oat (Avena fatua); [13]): 90
Plant response rating, Oat, Wild (wild oat (Avena fatua); [14]): 95
Plant response rating, Oat, Wild (wild oat (Avena fatua); [15]): 100
Plant response rating, Oat, Wild (wild oat (Avena fatua); [16]): 70
Plant response rating, Oat, Wild (wild oat (Avena fatua); [17]): 90
Oat, Wild plant response rating (wild oat (Avena fatua); [18]): 0
Oat, Wild plant response rating (wild oat (Avena fatua); [19]): 30
Goosegrass plant response rating [11, 12]: 60
Plant response rating, Goosegrass [11, 13]: 65
Plant response rating, Goosegrass [11, 14]: 80
Plant response rating, Goosegrass [11, 15]: 85
Plant response rating, Goosegrass [11, 22]: 0
Plant response rating, Goosegrass [11, 17]: 0
Goosegrass plant response rating [11, 18]: 0
Goosegrass plant response rating [11, 19]: 0

— patent US20100267561A1, “HERBICIDAL PYRIDAZINONE DERIVATIVES” (priority 2007, published 2010)
